Experiment [1] has as its target T1, leukotriene D4 (LTD4) induced contraction of guinea pig tracheal tissues (Cavia porcellus, UniProt Q2NNR5).
T1 construct: Guinea pig (adult male albino Hartley strain) tracheal spiral strips; from tissue; host or cells: guinea pig trachea (spiral strips, adult male albino Hartley strain)
T1 sequence (Q2NNR5 1-340): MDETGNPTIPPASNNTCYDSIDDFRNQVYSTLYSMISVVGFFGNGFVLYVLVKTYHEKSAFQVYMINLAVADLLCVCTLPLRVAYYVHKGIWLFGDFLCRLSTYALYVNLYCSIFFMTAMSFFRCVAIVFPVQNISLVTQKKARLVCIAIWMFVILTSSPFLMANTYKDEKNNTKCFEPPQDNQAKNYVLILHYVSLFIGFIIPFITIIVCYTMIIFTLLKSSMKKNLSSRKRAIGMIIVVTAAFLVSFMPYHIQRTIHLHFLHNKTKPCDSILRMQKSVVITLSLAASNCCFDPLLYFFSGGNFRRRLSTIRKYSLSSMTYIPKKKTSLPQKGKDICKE
Put plainly: in vitro inhibition of LTD4 induced contraction of guinea pig tracheal spiral strips. The conditions noted are these: guinea pig trachea, LTD4 agonist, 30 min pretreatment with test compound. It is filed as cell-based, guinea pig (adult male albino Hartley strain). How it is done:
The leukotriene antagonist activity of the compounds of this invention is measured by the ability of the compounds to inhibit the leukotriene induced contraction of guinea pig tracheal tissues in vitro and to inhibit leukotriene induced bronchoconstriction in guinea pigs in vivo. The following methodologies were employed: In vitro: Guinea pig (adult male albino Hartley strain) tracheal spiral strips of approximate dimensions 2 to 3 mm cross-sectional width and 3.5 cm length were bathed in modified Krebs buffer in jacketed 10 ml tissue bath and continously aerated with 95% 02 /5% CO2. The tissues were connected via silk suture to force displacement transducers for recording isometric tension. The tissues were equilibrated for 1 hr., pretreated for 15 minutes with meclofenamic acid (1 μM) to remove intrinsic prostaglandin responses, and then pretreated for an additional 30 minutes with either the test compound or vehicle control. A cumulative concentration-response curve for LTD4 on triplicate tissues was generated by successive increases in the bath concentration of the LTD4. In order to minimize intertissue variability, the contractions elicited by LTD4 were standardized as a percentage of the maximum response obtained to a reference agonist, carbachol (10 μM). Calculations: The averages of the triplicate LTD4 concentration-response curves both in the presence and absence of the test compound were plotted on log graph paper. The concentration of LTD4 needed to elicit 30% of the contraction elicited by carbachol was measured and defined as the EC30. The -log KB value for the test compound was determined by the following equations: [formula] In vivo: Anesthetized, spontaneously breathing guinea pigs (Adult male albino Hartley strain) were monitored on a Buxco pulmonary mechanics computer. Changes in airway resistance (RL) were calculated by the computer on a breath-by-breath basis at isovolumic points from signals measuring airflow and transpulmonary pressure using differential pressure transducers. Animals received either test compound or vehicle control intravenously via the jugular vein. LTD4 was then injected into the jugular vein. The bronchoconstriction produced was reflected by % changes in airways resistance relative to the baseline values obtained prior to injection of the test compound or vehicle control. Each guinea pig received either vehicle control or test compound.

Experiment [2] relates to LTD4 induced bronchoconstriction in guinea pigs. Put plainly: in vivo inhibition of LTD4 induced bronchoconstriction (airway resistance RL) in guinea pigs. The arrangement: species or system guinea pig (adult male albino Hartley strain). The conditions noted are these: 10 mg/kg, intravenous. As for the experimental part: The leukotriene antagonist activity of the compounds of this invention is measured by the ability of the compounds to inhibit the leukotriene induced contraction of guinea pig tracheal tissues in vitro and to inhibit leukotriene induced bronchoconstriction in guinea pigs in vivo. The following methodologies were employed: In vitro: Guinea pig (adult male albino Hartley strain) tracheal spiral strips of approximate dimensions 2 to 3 mm cross-sectional width and 3.5 cm length were bathed in modified Krebs buffer in jacketed 10 ml tissue bath and continously aerated with 95% 02 /5% CO2. The tissues were connected via silk suture to force displacement transducers for recording isometric tension. The tissues were equilibrated for 1 hr., pretreated for 15 minutes with meclofenamic acid (1 μM) to remove intrinsic prostaglandin responses, and then pretreated for an additional 30 minutes with either the test compound or vehicle control. A cumulative concentration-response curve for LTD4 on triplicate tissues was generated by successive increases in the bath concentration of the LTD4. In order to minimize intertissue variability, the contractions elicited by LTD4 were standardized as a percentage of the maximum response obtained to a reference agonist, carbachol (10 μM).
Calculations: The averages of the triplicate LTD4 concentration-response curves both in the presence and absence of the test compound were plotted on log graph paper. The concentration of LTD4 needed to elicit 30% of the contraction elicited by carbachol was measured and defined as the EC30. The -log KB value for the test compound was determined by the following equations: [formula] In vivo: Anesthetized, spontaneously breathing guinea pigs (Adult male albino Hartley strain) were monitored on a Buxco pulmonary mechanics computer. Changes in airway resistance (RL) were calculated by the computer on a breath-by-breath basis at isovolumic points from signals measuring airflow and transpulmonary pressure using differential pressure transducers. Animals received either test compound or vehicle control intravenously via the jugular vein. LTD4 was then injected into the jugular vein. The bronchoconstriction produced was reflected by % changes in airways resistance relative to the baseline values obtained prior to injection of the test compound or vehicle control. Each guinea pig received either vehicle control or test compound.
Calculations: The average of 3-6 animals per treatment was calculated using the % changes in the pulmonary parameters for control and test compound-treated animals. The average % inhibition by the test compound was calculated from the following equation: [formula]

On to `CCCCCCCCCCCOc1ccccc1C(SCCC(=O)O)SCCC(=O)O` [2 2 OC11 H23 H, 4,6-Dithia-5-(2-undecyloxyphenyl)nonanedioic acid], for which the Kb in experiment [1] is 0.398 µM. Besides, the “% Inhibition of RL” value in experiment [2] is reported as 89.4%. With `CCCCCCCCCCCOc1ccc(OC)cc1C(SCCC(=O)O)SCCC(=O)O` [2 2 OC11 H23 CH3 O, 4,6-dithia-5-(5-methoxy-2-undecyloxyphenyl)nonanedioic acid], the Kb in experiment [1] was 1.26 µM. Regarding `O=C(O)CCSC(SCCC(=O)O)c1ccccc1OCCCCCCc1ccccc1` [2 2 OC6 H12 phenyl H, 4,6-Dithia-5-[2-(6-phenylhexyloxy)phenyl]nonanedioic acid], the Kb in experiment [1] is 5.01 µM. In addition, the “% Inhibition of RL” value in experiment [2] came out at 26.4%.

As to `CCCc1c(OCCCCCOc2ccccc2C(SCCC(=O)O)SCCC(=O)O)ccc(C(C)=O)c1O` [4,6-Dithia-5-[2-(5-(4-acetyl-3-hydroxy-2-propylphenoxy)-pentoxy)phenyl]nonanedioic acid], in experiment [1], the Kb was 0.251 µM. Same read-out and setting: under `CCCCCCCCCCCCc1ccccc1C(SCC(=O)O)SCC(=O)O` [1 1 C12 H25 H, 3,5-dithia-4-(2-dodecylphenyl)heptanedioic acid] stands 1.26 µM; under `CCCCCCCCc1ccccc1C(SCCC(=O)O)SCCC(=O)O` [2 2 C8 H17 H, 4,6-dithia-5-(2-octylphenyl)nonanedioic acid], 6.31 µM; under `CCCCCCCCCCCCc1ccccc1C(SCCC(=O)O)[S+]([O-])CCC(=O)O` (stereo not shown) [5-(2-dodecylphenyl)-4-sulfinyl-6-thianonanedioic acid], 1.58 µM. Regarding `O=C(O)CCSC(SCCC(=O)O)c1cc(C(F)(F)F)ccc1CCCCCCCCc1ccccc1` [2 2 C8 H16 phenyl CF3, 4,6-Dithia-5-[2-(8-phenyloctyl)-5-trifluoromethylphenyl]nonanedioic acid], the Kb in experiment [1] was 0.251 µM.

Take `CCCCCCCCCCCOc1ccc(Br)cc1C(SCCC(=O)O)SCCC(=O)O` [2 2 OC11 H23 Br, 4,6-dithia-5-(5-bromo-2-undecyloxyphenyl)nonanedioic acid]: the Kb in experiment [1] was 1 µM. As for `O=C(O)CCSC(SCCC(=O)O)c1ccccc1CCCCCCCCc1ccc(C(F)(F)F)cc1` [2 2 C8 H16(4-CF3 phenyl) H, 4,6-Dithia-5-[2-(8-(4-trifluoromethylphenyl)octyl)phenyl]nonanedioic acid], the Kb in experiment [1] was 0.631 µM. Turning to `CCCCc1ccc(CCCCc2ccccc2C(SCCC(=O)O)SCCC(=O)O)cc1` [2 2 [drawing 19] H, 4,6-Dithia-5-[2-(4-(4-butylphenyl)butyl)phenyl]nonanedioic acid], in experiment [1], the Kb was 2.51 µM. As for `CCCCCCCCCCCOc1ccc(O)cc1C(SCCC(=O)O)SCCC(=O)O` [2 2 OC11 H23 OH, 4,6-dithia-5-(5-hydroxy-2-undecyloxyphenyl)nonanedioic acid], in experiment [1], the Kb is 1 µM. For `CCCCCCCCCCCCc1csc(C(SCCC(=O)O)SCCC(=O)O)c1` [Formula (V) 2 2 H C12 H25, 4,6-Dithia-5-(4-dodecyl-2-thienyl)nonanedioic acid], the Kb in experiment [1] was 3.16 µM. Take `O=C(O)CCSC(SCCC(=O)O)c1ccccc1CCCCCC/C=C\c1ccccc1` [2 2 (CH2)6CHCHphenyl H, 4,6-Dithia-5-[2-(8-phenyl-7(Z)-octenyl)phenyl]nonanedioic acid]: the Kb in experiment [1] is 0.631 µM. As to `CCCCCCCCCC/C=C/c1ccccc1C(SCCC(=O)O)SCCC(=O)O` [2 2 CHCHC10 H21 trans H, 4,6-Dithia-5-[2-(1-trans-dodecenyl)phenyl]nonanedioic acid], in experiment [1], the Kb is 1.58 µM. Turning to `O=C(O)CCSC(SCCC(=O)O)c1cccc(CCCCCCCCc2ccccc2)c1` [2 2 H C8 H16 phenyl, 4,6-dithia-5-[3-(8-phenyloctyl)phenyl]nonanedioic acid], the Kb in experiment [1] was 1 µM. Regarding `O=C(O)CCSC(SCCC(=O)O)c1ccccc1CCCCCCCCC1CCCCC1` [2 2 C8 H16 cyclohexyl H, 4,6-Dithia-5-[2-(8-cyclohexyloctyl)phenyl]nonanedioic acid], the Kb in experiment [1] was 3.16 µM.

With `CCCCCCCCCCCOc1cccc(C(SCCC(=O)O)SCCC(=O)O)c1` [2 2 H OC11 H23, 4,6-dithia-5-(3-undecyloxyphenyl)nonanedioic acid], the Kb in experiment [1] was 0.794 µM.

As to `CCCCCCCCCOc1cccc(C(SCCC(=O)O)SCCC(=O)O)c1` [2 2 H OC9 H19, 4,6-dithia-5-(3-nonyloxyphenyl)nonanedioic acid], in experiment [1], the Kb is 1.26 µM.

For `CCCCCCCCCCCOc1ccc([N+](=O)[O-])cc1C(SCCC(=O)O)SCCC(=O)O` [2 2 OC11 H23 NO2, 4,6-dithia-5-(5-nitro-2-undecyloxyphenyl)nonanedioic acid], in experiment [1], the Kb is 0.794 µM. `CCCCC/C=C\C/C=C\COc1ccccc1C(SCCC(=O)O)SCCC(=O)O` [2 2 OCH2CHCHCH2CHCHC5 H11 H, 4,6-dithia-5-[2-(2(Z),5(Z)-undecadienyloxy)phenyl]nonanedioic acid]: the Kb in experiment [1] was 1 µM. With `CCCCC/C=C\C/C=C\COc1cccc(C(SCCC(=O)O)SCCC(=O)O)c1` [2 2 H OCH2 CHCHCH2 CHCHC5 H11, 4,6-dithia-5-[3-(2(Z),5(Z)-undecadienyloxy)phenyl]nonanedioic acid], in experiment [1], the Kb was 0.794 µM. With `CCCCCCCCCCCCc1ccsc1C(SCCC(=O)O)SCCC(=O)O` [Formula (V) 2 2 C12 H25 H, 4,6-dithia-5-(3-dodecyl-2-thienyl)nonanedioic acid], the Kb in experiment [1] was 1.26 µM. As for `C#CCCCCCCCCCCc1ccccc1C(SCCC(=O)O)SCCC(=O)O` [2 2 C10 H20 CCH H, 4,6-Dithia-5-[2-(11-dodecynyl)phenyl]nonanedioic acid], in experiment [1], the Kb was 0.398 µM.

On to `CCCCCCCCCCCSc1ccccc1C(SCCC(=O)O)SCCC(=O)O` [2 2 SC11 H23 H, 4,6-Dithia-5-(2-undecylthiophenyl)nonanedioic acid], for which, in experiment [1], the Kb was 1 µM.

`CCCCCCCCCOc1ccccc1C(SCCC(=O)O)SCCC(=O)O` [2 2 OC9 H19 H, 4,6-dithia-5-(2-nonyloxyphenyl)nonanedioic acid]: in experiment [1], the Kb is 1.58 µM.

With `CCCCCCCCCCCOc1ccccc1C(C)(SCCC(=O)O)SCCC(=O)O` [4,6-dithia-5-methyl-5-(2-undecyloxyphenyl)nonanedioic acid], in experiment [1], the Kb is 5.01 µM. As to `O=C(O)CCSC(SCCC(=O)O)c1ccccc1CCCCCCCSc1ccccc1` [2 2 C7 H4 S phenyl H, 4,6-Dithia-5-[2-(7-phenylthioheptyl)phenyl]nonanedioic acid], the Kb in experiment [1] is 0.398 µM. Regarding `CCCCCCCCCCC#Cc1ccccc1C(SCCC(=O)O)SCCC(=O)O` [2 2 CCC10 H21 H, 4,6-Dithia-5-[2-(1-dodecyn-1-yl)phenyl]nonanedioic acid], the Kb in experiment [1] is 0.794 µM.
